These results are taken from PMC11062922 (Nature Chemical Biology, 2023).

For assay [1], the system named is Concanavalin A-induced cytokine production in Whole Blood. Also on record: method as in chemicalprobes.org. The conditions noted are these: ref chemicalprobes.org, read-out: Potency value in cells (EC50); cited from earlier work.
The subject of another assay is LCK. Also on record: method as in chemicalprobes.org. The conditions noted are these: @ 1 mM ATP, ref chemicalprobes.org; cited from earlier work.
The test system of assay [2] is IL-10 secretion in primary bone marrow-derived dendritic cells (BMDCs). Put plainly: IL-10 cytokine secretion assay (ELISA) in Zymosan-stimulated primary BMDCs. The format is cell-based, mouse. The following applies: murine BMDCs, inhibitor 30 min before Zymosan stimulation. As for the experimental part:
A subsequent full dose–response experiment confirmed potent and selective binding to SYK ( Kdapp = 58 nM, […] = 0.60; Extended Data Fig. 5a,b). […] One of the effects of Zymosan is that it activates Dectin-1 signaling, in turn activating SYK and leading to increased IL-10 cytokine production (Fig. 3c)[34]. Treatment of cells with the respective SYK inhibitors before Zymosan stimulation indeed led to decreased levels of IL-10 in a dose-dependent fashion (Fig. 3d). […] In line with the cytokine readout, we observed a dose depended reduction of pTyr525/526 indicating SYK inhibition in live cells (Fig. 3e and Extended Data Fig. 5c).
Primary BMDCs were obtained from 9-week-old C57BL/6 mice that were maintained under standard specific pathogen-free conditions. BMDCs were differentiated for 7 days in Roswell Park Memorial Institute medium (Gibco) and granulocyte-macrophage colony-stimulating factor. On day seven, BMDCs were seeded in 96-well plates at 10^5 cells per well in 100 µl of culture medium followed by incubation for 4 h at 37 °C. Subsequently, cells were incubated with SYK inhibitors for 30 min followed by stimulation with Zymosan (final concentration of 50 µg ml^−1; Invivogen) and dispersed in culture medium for 24 h. […] For cytokine secretion quantification, cell culture medium was collected and concentrations of IL-10 in the supernatant were determined using mouse enzyme-linked immunosorbent assay kits (IL-10: Invitrogen) according to the manufacturer’s protocol. Experiments were performed in biological triplicates.
On the technique in general: ELISA stands for enzyme-linked immunosorbent assay.

The target in the next assay is T1, PAK4 (Homo sapiens, UniProt O96013).
T1 construct: a mixture of lysates from five cancer cell lines; endogenous in cells
T1 sequence (O96013 whole entry): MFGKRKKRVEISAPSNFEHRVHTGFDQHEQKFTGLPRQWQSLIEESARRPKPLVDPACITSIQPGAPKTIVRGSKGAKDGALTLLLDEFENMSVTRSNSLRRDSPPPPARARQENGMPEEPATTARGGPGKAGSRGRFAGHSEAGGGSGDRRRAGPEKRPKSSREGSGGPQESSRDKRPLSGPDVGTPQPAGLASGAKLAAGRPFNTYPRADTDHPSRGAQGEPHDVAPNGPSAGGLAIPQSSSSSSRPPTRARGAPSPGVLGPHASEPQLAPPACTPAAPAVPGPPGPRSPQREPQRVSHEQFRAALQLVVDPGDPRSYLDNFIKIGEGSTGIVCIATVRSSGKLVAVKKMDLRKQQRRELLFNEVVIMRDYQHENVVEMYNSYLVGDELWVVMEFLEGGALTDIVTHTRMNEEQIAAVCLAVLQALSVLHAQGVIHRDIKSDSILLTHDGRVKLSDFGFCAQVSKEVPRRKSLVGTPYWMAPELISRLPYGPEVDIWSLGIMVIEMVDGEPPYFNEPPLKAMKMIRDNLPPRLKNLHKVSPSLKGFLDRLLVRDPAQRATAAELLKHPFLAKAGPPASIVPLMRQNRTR
Put plainly: Kinobeads full dose-response competition binding: PAK4. The conditions noted are these: Gene Name PAK4, doses in nM.

The target of the next assay is T2, PRKCA (Homo sapiens, UniProt P17252).
T2 construct: endogenous in cells
Put plainly: Kinobeads full dose-response competition binding: PRKCA. The conditions noted are these: Gene Name PRKCA, doses in nM.

The target of assay [3] is T3, ABL1 (Homo sapiens, UniProt P00519). Put plainly: Kinobeads two-dose competition binding: ABL1. The following applies: sheet "Kinobeads Drugmatrix - all"; unit inferred; read-out: Kinobeads Drugmatrix - all: apparent Kd, ABL1.
T3 sequence (P00519 28-1130 limits assumed): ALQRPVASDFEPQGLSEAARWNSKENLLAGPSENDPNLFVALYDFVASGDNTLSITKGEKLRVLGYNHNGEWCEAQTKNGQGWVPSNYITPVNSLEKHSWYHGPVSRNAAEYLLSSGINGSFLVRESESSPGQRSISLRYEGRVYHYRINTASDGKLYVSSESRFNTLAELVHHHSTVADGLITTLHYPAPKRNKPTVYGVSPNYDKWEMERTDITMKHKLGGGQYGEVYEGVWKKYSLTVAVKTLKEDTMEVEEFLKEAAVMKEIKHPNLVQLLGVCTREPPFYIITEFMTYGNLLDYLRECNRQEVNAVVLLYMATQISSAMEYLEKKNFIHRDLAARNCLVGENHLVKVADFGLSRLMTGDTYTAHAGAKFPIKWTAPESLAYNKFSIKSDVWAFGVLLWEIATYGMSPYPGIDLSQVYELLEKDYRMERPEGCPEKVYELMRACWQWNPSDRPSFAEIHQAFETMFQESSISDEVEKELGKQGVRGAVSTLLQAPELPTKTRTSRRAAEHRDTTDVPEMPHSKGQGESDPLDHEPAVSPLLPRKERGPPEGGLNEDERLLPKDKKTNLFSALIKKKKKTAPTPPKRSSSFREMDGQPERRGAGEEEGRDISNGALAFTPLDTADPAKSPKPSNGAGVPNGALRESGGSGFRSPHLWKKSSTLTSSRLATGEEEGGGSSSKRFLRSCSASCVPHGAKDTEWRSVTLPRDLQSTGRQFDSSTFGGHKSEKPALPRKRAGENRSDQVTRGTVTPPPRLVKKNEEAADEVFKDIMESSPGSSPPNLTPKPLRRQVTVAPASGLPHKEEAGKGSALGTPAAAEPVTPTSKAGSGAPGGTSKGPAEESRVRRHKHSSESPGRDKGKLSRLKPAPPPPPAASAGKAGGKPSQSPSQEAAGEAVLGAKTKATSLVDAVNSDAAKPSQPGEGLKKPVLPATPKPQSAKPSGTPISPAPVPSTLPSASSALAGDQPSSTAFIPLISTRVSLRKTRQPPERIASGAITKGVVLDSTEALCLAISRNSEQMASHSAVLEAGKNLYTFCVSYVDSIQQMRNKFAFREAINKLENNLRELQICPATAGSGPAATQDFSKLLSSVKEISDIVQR
Assay [4] deals with T4, ABL2 (Homo sapiens, UniProt P42684).
T4 construct: endogenous in cells
T4 sequence (P42684 whole entry): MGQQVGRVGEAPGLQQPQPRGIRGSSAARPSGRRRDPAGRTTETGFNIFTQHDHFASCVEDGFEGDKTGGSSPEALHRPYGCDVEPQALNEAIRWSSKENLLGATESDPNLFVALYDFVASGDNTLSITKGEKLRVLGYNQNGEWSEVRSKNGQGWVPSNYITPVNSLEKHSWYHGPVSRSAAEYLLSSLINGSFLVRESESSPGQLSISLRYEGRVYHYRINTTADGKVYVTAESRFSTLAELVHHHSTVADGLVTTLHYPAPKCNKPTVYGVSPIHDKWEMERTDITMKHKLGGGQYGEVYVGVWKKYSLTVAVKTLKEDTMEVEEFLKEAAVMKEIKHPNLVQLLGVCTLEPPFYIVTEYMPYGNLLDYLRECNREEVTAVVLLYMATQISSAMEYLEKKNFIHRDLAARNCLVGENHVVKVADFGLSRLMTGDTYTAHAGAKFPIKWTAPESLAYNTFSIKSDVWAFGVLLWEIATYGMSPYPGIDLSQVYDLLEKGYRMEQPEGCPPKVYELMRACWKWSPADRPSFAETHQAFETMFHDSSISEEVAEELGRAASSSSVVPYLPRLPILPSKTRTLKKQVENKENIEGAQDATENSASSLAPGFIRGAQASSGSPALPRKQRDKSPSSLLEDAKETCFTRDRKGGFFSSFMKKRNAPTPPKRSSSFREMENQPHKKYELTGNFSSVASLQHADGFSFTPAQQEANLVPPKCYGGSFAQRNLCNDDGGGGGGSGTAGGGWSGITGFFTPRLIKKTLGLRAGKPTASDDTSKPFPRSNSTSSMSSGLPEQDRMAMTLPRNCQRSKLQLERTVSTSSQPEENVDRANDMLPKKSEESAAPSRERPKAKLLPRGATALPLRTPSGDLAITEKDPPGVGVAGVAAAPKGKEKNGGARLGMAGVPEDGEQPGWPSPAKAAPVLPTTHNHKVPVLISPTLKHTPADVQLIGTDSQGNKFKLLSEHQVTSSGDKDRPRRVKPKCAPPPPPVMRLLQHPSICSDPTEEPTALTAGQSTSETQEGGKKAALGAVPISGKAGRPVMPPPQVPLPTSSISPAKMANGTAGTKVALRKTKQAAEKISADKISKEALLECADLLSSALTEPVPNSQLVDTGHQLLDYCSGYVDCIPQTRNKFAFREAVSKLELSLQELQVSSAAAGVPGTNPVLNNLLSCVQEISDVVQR
Put plainly: Kinobeads two-dose competition binding: ABL2. The conditions noted are these: sheet "Kinobeads Drugmatrix - all"; unit inferred; read-out: Kinobeads Drugmatrix - all: apparent Kd, ABL2.

Assay [5] concerns the target T5, ACAD11 (Homo sapiens, UniProt Q709F0).
T5 construct: endogenous in cells
T5 sequence (Q709F0 1-780): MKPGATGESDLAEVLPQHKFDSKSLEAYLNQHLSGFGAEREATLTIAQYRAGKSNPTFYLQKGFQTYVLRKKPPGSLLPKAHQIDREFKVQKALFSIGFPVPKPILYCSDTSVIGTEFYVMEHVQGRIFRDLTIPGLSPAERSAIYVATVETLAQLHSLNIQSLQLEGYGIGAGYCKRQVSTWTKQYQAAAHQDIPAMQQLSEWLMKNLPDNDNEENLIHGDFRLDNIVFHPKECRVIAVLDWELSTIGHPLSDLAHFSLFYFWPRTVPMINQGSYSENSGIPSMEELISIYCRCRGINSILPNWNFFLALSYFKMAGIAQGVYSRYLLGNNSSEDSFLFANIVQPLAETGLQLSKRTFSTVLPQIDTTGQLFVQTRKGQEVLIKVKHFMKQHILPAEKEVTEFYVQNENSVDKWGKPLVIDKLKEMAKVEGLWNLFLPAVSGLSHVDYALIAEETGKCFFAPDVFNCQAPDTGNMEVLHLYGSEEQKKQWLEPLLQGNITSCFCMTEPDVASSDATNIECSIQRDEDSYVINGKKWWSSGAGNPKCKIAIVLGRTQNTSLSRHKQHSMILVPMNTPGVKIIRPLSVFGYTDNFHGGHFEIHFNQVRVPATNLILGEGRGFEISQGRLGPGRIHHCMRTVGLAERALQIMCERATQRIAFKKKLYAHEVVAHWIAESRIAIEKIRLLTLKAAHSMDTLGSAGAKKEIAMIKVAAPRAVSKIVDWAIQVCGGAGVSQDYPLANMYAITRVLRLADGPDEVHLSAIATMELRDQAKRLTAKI
Put plainly: Kinobeads two-dose competition binding: ACAD11. The following applies: sheet CATDS matrix 2; Gene Name ACAD11.

Assay [6] concerns endogenous kinases and other proteins enriched by Kinobeads from mixed lysates of K-562, COLO-205, MV-4-11, SK-N-BE(2) and OVCAR-8. Put plainly: Kinobeads competition binding profiling, two doses (100 nM and 1 µM).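 Also: inhibitor preincubated 45 min at 4 °C in cell lysate, then bead pulldown. Bound protein quantified by label-free mass spectrometry relative to DMSO vehicle control.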 Also on record: species or system human. The conditions noted are these: in words.
A further assay has as its target T6, AAK1 (Homo sapiens, UniProt Q2M2I8).
T6 construct: to maximize the representation of endogenous proteins; endogenous in cells
Nature of the assay: Kinobeads two-dose competition binding: AAK1.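 As to all read-outs here: kinobeads competition pulldown from cell lysate, compound preincubated 45 min at 4 °C, bead-bound protein measured by label-free mass spectrometry against DMSO vehicle control.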 The conditions noted are these: for potency estimated from few doses: sheet "Kinobeads Drugmatrix - all", unit inferred, same values below 1000 recur in sheet "nanomolar", read-out: Kinobeads Drugmatrix - all: apparent Kd, AAK1; for CATDS: sheet CATDS matrix 2, Gene Name AAK1.

Assay [7] addresses T5, ACAD11. Nature of the assay: Kinobeads two-dose competition binding: ACAD11. The following applies: sheet "Kinobeads Drugmatrix - all"; unit inferred; read-out: Kinobeads Drugmatrix - all: apparent Kd, ACAD11.
Assay [8] has as its target T4, ABL2. Put plainly: Kinobeads two-dose competition binding: ABL2. The following applies: sheet CATDS matrix 2; Gene Name ABL2.
Assay [9] deals with T3, ABL1. Put plainly: Kinobeads two-dose competition binding: ABL1. The following applies: sheet CATDS matrix 2; Gene Name ABL1.
A further assay has as its target T7, ACOX1 (Homo sapiens, UniProt Q15067).
T7 construct: endogenous in cells
T7 sequence (Q15067 1-660): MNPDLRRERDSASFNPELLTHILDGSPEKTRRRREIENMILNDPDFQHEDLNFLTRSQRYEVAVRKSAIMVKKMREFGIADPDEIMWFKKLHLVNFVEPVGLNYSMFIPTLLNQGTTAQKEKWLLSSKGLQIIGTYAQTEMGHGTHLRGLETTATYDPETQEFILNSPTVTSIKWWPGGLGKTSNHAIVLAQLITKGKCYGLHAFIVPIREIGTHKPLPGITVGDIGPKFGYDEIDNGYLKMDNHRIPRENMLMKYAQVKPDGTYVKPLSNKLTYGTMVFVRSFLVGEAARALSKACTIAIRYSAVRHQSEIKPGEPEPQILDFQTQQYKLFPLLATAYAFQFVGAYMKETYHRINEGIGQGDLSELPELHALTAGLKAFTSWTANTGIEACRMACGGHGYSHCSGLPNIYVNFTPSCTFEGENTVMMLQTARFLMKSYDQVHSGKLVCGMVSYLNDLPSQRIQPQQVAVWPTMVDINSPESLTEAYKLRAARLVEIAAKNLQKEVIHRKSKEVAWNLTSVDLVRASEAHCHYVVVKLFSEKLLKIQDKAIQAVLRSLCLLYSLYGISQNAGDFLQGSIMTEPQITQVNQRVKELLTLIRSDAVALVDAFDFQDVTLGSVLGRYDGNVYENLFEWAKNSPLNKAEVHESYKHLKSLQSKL
Put plainly: Kinobeads two-dose competition binding: ACOX1.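 Also: competition of compounds with immobilized broad-spectrum kinase inhibitor beads in cell lysate at 100 and 1,000 nM, 45 min at 4 °C, bead-bound protein quantified by label-free MS versus DMSO.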 The following applies: sheet CATDS matrix 2; Gene Name ACOX1.

Assay [10] deals with T8, endogenous kinases and other proteins enriched by Kinobeads from mixed lysates of K-562, COLO-205, MV-4-11, SK-N-BE(2) and OVCAR-8 (Homo sapiens, UniProt O43353).
T8 construct: to maximize the representation of endogenous proteins; endogenous in cells
Nature of the assay: Kinobeads competition binding profiling, two doses (100 nM and 1 µM).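 Also: inhibitor preincubated 45 min at 4 °C in cell lysate, then bead pulldown. Bound protein quantified by label-free mass spectrometry relative to DMSO vehicle control.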 The conditions noted are these: target RIPK2; read-out: apparent Kd.

Assay [11] concerns the target T9, endogenous kinases and other proteins enriched by Kinobeads from mixed lysates of K-562, COLO-205, MV-4-11, SK-N-BE(2) and OVCAR-8 (Homo sapiens, UniProt Q8NI60).
T9 construct: to maximize the representation of endogenous proteins; endogenous in cells
The description is as above. The conditions noted are these: target ADCK3; read-out: apparent Kd.

The target in assay [12] is T10, endogenous kinases and other proteins enriched by Kinobeads from mixed lysates of K-562, COLO-205, MV-4-11, SK-N-BE(2) and OVCAR-8 (Homo sapiens, UniProt P35916).
T10 construct: endogenous in cells
The assay is described as above. The conditions noted are these: target FLT4; read-out: apparent Kd.

Another assay deals with PKN3 (Homo sapiens, UniProt Q6P5Z2). Also on record: full-length PKN3, CSNK2A1 or CSNK2A2 ORF; host or cells: HEK293T. The conditions noted are these: reported for the most potent 4-anilinoquin(az)oline; cited from earlier work.
In assay [13] the target is T11, endogenous kinases and other proteins enriched by Kinobeads from mixed cancer cell lysates (Homo sapiens, UniProt Q86TW2).
T11 construct: endogenous in cells
Put plainly: Kinobeads pulldown, full dose-response (eight doses).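 Also: competition with Kinobeads ε after inhibitor preincubation in lysate (5 mg/ml protein) for 45 min at 4 °C, DMSO control, doses 0.3–1,000 nM, label-free LC–MS/MS quantification.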 The format is binding. The following applies: target ADCK1; in nM.

The target of assay [14] is T12, endogenous kinases and other proteins enriched by Kinobeads from mixed cancer cell lysates (Homo sapiens, UniProt P68400).
T12 construct: endogenous in cells
The assay is described as above. The following applies: target CSNK2A1;CSNK2A3; in nM. The format is binding.

Assay [15] deals with T13, endogenous kinases and other proteins enriched by Kinobeads from mixed cancer cell lysates (Homo sapiens, UniProt Q9Y616).
T13 construct: endogenous in cells
The description is as above. The conditions noted are these: target IRAK3; in nM. It counts as binding.

The target in assay [16] is T14, endogenous kinases and other proteins enriched by Kinobeads from mixed cancer cell lysates (Homo sapiens, UniProt O75822).
T14 construct: to maximize the representation of endogenous proteins; endogenous in cells
The assay is described as above. It counts as binding. The conditions noted are these: target EIF3J; in nM.

In assay [17] the target is T15, endogenous kinases and other proteins enriched by Kinobeads from mixed cancer cell lysates (Homo sapiens, UniProt P16083).
T15 construct: endogenous in cells
Described as above. The format is binding. The conditions noted are these: target NQO2; in nM.

Assay [18] addresses T16, endogenous kinases and other proteins enriched by Kinobeads from mixed cancer cell lysates (Homo sapiens, UniProt P67870).
T16 construct: endogenous in cells
Described as above. It counts as binding. The following applies: target CSNK2B; in nM.

The target in assay [19] is T17, endogenous kinases and other proteins enriched by Kinobeads from mixed cancer cell lysates (Homo sapiens, UniProt P19784).
T17 construct: endogenous in cells
The description is as above. The format is binding. The conditions noted are these: target CSNK2A2; in nM.

Setting [20] is: EC50 with Correction, read-out: apparent Kd.

T6 sequence (Q2M2I8 whole entry): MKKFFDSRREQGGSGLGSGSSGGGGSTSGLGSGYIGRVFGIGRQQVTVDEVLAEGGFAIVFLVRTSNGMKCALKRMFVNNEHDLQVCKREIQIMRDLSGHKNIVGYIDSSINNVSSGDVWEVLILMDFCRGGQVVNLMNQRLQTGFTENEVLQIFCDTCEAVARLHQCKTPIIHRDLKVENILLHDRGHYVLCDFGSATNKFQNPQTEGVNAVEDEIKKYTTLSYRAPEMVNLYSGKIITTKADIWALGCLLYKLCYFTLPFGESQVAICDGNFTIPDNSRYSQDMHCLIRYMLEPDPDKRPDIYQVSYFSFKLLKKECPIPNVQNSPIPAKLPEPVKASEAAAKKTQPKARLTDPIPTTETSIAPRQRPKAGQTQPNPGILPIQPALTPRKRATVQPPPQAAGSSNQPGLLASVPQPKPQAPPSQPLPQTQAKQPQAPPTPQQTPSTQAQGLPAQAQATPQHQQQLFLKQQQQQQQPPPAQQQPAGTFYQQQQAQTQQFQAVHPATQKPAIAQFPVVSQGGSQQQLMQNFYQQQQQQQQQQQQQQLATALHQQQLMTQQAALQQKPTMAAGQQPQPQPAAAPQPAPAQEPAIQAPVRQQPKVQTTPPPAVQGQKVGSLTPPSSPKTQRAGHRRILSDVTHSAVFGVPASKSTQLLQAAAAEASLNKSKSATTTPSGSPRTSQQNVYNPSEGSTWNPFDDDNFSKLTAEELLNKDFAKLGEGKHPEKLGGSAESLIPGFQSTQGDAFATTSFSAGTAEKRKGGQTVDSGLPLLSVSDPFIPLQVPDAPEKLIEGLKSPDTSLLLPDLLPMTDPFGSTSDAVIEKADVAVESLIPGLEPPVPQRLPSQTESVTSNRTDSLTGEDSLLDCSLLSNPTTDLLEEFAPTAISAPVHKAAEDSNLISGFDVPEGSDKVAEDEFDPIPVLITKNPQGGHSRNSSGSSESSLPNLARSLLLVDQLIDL
T9 sequence (Q8NI60 163-647): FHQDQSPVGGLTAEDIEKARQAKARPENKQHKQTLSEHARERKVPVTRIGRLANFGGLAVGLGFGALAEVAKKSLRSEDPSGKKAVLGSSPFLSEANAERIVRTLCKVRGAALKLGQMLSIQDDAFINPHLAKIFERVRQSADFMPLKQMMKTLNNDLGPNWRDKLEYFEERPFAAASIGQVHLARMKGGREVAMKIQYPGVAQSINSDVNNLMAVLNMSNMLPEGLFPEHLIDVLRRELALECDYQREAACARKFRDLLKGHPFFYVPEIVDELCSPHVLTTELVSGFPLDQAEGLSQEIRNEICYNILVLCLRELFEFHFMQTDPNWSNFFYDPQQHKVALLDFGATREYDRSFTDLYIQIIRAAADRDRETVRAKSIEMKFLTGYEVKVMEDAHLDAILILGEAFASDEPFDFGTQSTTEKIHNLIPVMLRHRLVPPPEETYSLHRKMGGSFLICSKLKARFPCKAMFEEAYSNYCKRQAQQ

In the case of `COc1cc(-c2nn([C@H]3CC[C@H](N4CCN(C(C)=O)CC4)CC3)c3ncnc(N)c23)ccc1NC(=O)c1cc2ccccc2n1C` [Compound A-770041], the EC50 in assay [1] was 80 nM. For the same compound, in the assay on LCK, the Potency value was 147 nM @ 1 mM ATP.

Consider `Cc1cccc(Nc2nc(N[C@H]3CCCC[C@H]3N)ncc2C(N)=O)c1` [GSK986310C], for which, in assay [2], the IL-10 levels entry is reported as “dose-dependent reduction”. Moreover, the Kd at PAK4 (setting [20]) was found to be 65.9 nM; on PRKCA (setting [20]), 272 nM. Also, the EC50 at PAK4 (eight-dose curve fit) was 135 nM; at PRKCA (eight-dose curve fit), 446 nM.

Turning to `NCC(C(=O)Nc1cc(Br)c(-c2ccnc3[nH]ccc23)s1)c1ccccc1` (stereo not shown) [GSK1269851A], the potency estimated from few doses is above 1000 nM at ABL1 [3], 433 nM on ABL2 [4], 84.4 nM at AAK1 and above 1000 nM on ACAD11 [7]. Moreover, the CATDS on ACAD11 [5] worked out at 0; at AAK1, 0.03418; on ABL2 [8], 0.01467; on ABL1 [9], 0; at ACOX1, 0. Further, in [6], the “selectivity in the Kinobeads assay (CATDSmost potent)” value is “unselective”.

For the compound `Cc1cc(-c2ccnc(Nc3cccc(C#N)c3)n2)cc(C)c1O` [GSK1440913A], the CATDS was determined as 0.1181 at ACAD11 [5]; 0.2295 on AAK1; 0 on ABL2 [8]; 0 on ABL1 [9]; 0 at ACOX1. The potency estimated from few doses is 120 nM on AAK1 and 425 nM on ACAD11 [7].

As to `O=c1[nH]ccc2nc(N[C@@H]3CCNC3)nc(Nc3ccc4c(c3)S(=O)(=O)CC4)c12` [GSK2181306A], the CATDS at ACAD11 [5] was 0.02228; on AAK1 it was 0.01021; on ABL2 [8] it was 0; on ABL1 [9], 0; on ACOX1, 0. The potency estimated from few doses was 800 nM at AAK1 and 145 nM on ACAD11 [7].

Take `CNC(=O)c1cncc(/C=C/c2c(Cl)cccc2Cl)c1` [GW445014X]: the potency estimated from few doses in assay [10] is 773 nM.

In the case of `CNC(=O)c1cncc(/C=C/c2ccccc2Cl)c1` [GW445017X], in [11], the potency estimated from few doses was 747 nM.

For `CCS(=O)(=O)c1ccc(OC)c(Nc2ncc(-c3cccc(-c4ccccc4F)c3)o2)c1` [GW678313X], the potency estimated from few doses in assay [12] is 423 nM.

For the compound `COc1cc(Nc2ccnc3cc(I)ccc23)cc(OC)c1OC` [UNC-CA94], the “in-cell target engagement PKN3” value on PKN3 was 1.3 µM.

For `c1cn2cc(-c3ccc4cn[nH]c4c3)nc(Nc3ccc(N4CCOCC4)cc3)c2n1` [entospletinib], the IL-10 levels entry in assay [2] is “dose-dependent reduction”. Also, the EC50 in [13] came to 16437.9; in [14], 1585.19; in assay [15], 4708.37; in [16], 1609.61; in [17], 295.4; in assay [18], 940.697. This compound also displayed an EC50 in assay [19] of 1314.91.
